# Data: US8598114B2, “Antimicrobial compounds” (priority 2007, dated 2013)
# Peptide text beside a SMILES is read from it. * marks the point of attachment. NHPhenethyl = c1ccc(CCN*)cc1
# Key:
# trypsin = assay: in vitro; type: in vitro ADME; conditions: pH 8.6
# Method: Measurements and Calculation of Peptide Half-Life
# Each peptide was dissolved in a 0.1 M NH4HCO3 buffer (pH 6.5) to yield a final peptide concentration of 1 mg/ml. A trypsin solution was prepared by dissolving 1 mg of trypsin in 50 ml 0.1 M NH4HCO3 buffer (pH 8.2). For the stability determination, 250 μl freshly made trypsin solution and 250 μl peptide solution were incubated in 2 ml of 0.1 M NH4HCO3 buffer (pH 8.6) at 37° C. on a rocking table. Aliquots of 0.5 ml were sampled at different time intervals, diluted with 0.5 ml water:acetonitrile (60:40 v/v) containing 1% TFA and analysed by RP-HPLC as described above. Samples without trypsin addition taken at 0 h and after 20 h at 37° C. were used as negative controls. Integration of the peak area at 254 nm for samples taken during the first 5 hours of the assay was used to generate the τ1/2.
# E. coli = assay: Minimal inhibitory concentration (Example 6); type: cell-based
# MRSA = assay: Minimal inhibitory concentration (Example 6); type: cell-based
# S. aureus = assay: Minimal inhibitory concentration (Example 6); type: cell-based
# Str. pyogenes = assay: Minimal inhibitory concentration (Example 6); type: cell-based
structure (smiles),measurement,setting,value
N=C(N)NCCC[C@H](NC(=O)[C@H](Cc1ccc(-c2cccc3ccccc23)cc1)NC(=O)[C@@H](N)CCCNC(=N)N)C(=O)NCCc1ccccc1 [Compound 3],half-life at 0.1 mg/ml,trypsin; isolated enzyme trypsin,20 h
N=C(N)NCCC[C@H](NC(=O)[C@H](Cc1ccc(-c2ccc(-c3ccccc3)cc2)cc1)NC(=O)[C@@H](N)CCCNC(=N)N)C(=O)NCCc1ccccc1 [Compound 5],half-life at 0.1 mg/ml,trypsin,> 24 h
"N=C(N)NCCC[C@H](NC(=O)[C@H](Cc1c[nH]c2ccccc12)NC(=O)[C@@H](N)CCCNC(=N)N)C(=O)NCCc1ccccc1 [Compound 6, reference compound] (H-Arg-Trp-Arg-NHPhenethyl)",half-life at 0.1 mg/ml,trypsin; isolated enzyme trypsin,7 h
"CC(C)(C)c1cc(C(C)(C)C)c2[nH]c(C(C)(C)C)c(C[C@H](NC(=O)[C@@H](N)CCCNC(=N)N)C(=O)N[C@@H](CCCNC(=N)N)C(=O)NCCc3ccccc3Br)c2c1 [—(CH2)2—(2-BrPh), H-Arg-Tbt-Arg-NH(CH)2(2-Br-phenyl)]",Minimal inhibitory concentration E. coli,E. coli,6 µg/mL
same,Minimal inhibitory concentration MRSA,MRSA,3 µg/mL
same,Minimal inhibitory concentration S. aureus,S. aureus,3 µg/mL
same,Minimal inhibitory concentration Str. pyogenes,Str. pyogenes,3 µg/mL
